Drawing on ChEMBL document CHEMBL1131616, “TROTEC-1: a new high-affinity ligand for labeling of the dopamine transporter” (J Med Chem, 1998), this text covers IC50 for two compounds.

The target in assay [1] is Sodium-dependent serotonin transporter (Homo sapiens, UniProt P31645). Put plainly: The compound was tested in vitro for binding affinity for the serotonin transporter (5-HTT) using competitive binding assay.
Assay [2] addresses T1, Sodium-dependent dopamine transporter (Homo sapiens, UniProt Q01959). Put plainly: The compound was tested in vitro for high binding affinity for the Dopamine transporter (DAT) using competitive binding assay.
In assay [3] the target is T1, Sodium-dependent dopamine transporter. In words: The compound was tested in vitro for low binding affinity for the Dopamine transporter (DAT) using competitive binding assay.
The target in assay [4] is Sodium-dependent noradrenaline transporter (Homo sapiens, UniProt P23975). In words: The compound was tested in vitro for binding affinity for the norepinephrine transporter (NET) using competitive binding assay.
Chain of Sodium-dependent noradrenaline transporter (P23975 whole entry): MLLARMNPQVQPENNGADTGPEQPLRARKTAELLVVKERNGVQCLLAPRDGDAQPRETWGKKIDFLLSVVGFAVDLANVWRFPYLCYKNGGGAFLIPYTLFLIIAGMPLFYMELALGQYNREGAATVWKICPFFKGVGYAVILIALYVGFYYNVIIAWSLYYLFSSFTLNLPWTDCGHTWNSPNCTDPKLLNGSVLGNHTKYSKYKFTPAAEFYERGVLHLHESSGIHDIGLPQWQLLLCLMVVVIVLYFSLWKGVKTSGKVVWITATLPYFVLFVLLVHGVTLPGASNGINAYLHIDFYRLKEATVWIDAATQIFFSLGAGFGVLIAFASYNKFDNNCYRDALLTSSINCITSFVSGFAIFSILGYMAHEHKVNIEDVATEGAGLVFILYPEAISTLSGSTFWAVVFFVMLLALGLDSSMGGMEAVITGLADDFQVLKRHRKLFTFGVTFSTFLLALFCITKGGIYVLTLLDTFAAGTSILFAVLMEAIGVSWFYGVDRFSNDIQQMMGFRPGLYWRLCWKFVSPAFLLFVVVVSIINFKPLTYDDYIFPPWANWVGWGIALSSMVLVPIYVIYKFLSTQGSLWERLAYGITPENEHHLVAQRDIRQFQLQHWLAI

Chain of Sodium-dependent serotonin transporter (P31645 whole entry): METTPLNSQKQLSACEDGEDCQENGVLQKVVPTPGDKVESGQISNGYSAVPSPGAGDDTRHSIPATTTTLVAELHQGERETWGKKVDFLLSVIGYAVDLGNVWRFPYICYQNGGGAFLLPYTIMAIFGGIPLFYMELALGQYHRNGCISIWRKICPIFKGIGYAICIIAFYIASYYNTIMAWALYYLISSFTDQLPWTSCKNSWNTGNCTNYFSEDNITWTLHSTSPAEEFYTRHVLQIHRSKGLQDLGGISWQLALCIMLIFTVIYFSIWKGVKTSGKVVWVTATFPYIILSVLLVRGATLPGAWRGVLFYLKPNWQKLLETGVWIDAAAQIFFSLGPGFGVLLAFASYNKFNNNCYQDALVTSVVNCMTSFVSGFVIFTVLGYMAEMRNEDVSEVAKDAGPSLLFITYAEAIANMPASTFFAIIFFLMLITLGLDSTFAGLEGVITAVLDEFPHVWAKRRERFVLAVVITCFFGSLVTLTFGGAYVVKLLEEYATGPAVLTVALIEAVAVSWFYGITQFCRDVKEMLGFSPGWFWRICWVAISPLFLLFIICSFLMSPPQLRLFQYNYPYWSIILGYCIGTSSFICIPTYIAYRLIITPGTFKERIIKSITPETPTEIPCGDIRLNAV
T1 sequence (Q01959 whole entry): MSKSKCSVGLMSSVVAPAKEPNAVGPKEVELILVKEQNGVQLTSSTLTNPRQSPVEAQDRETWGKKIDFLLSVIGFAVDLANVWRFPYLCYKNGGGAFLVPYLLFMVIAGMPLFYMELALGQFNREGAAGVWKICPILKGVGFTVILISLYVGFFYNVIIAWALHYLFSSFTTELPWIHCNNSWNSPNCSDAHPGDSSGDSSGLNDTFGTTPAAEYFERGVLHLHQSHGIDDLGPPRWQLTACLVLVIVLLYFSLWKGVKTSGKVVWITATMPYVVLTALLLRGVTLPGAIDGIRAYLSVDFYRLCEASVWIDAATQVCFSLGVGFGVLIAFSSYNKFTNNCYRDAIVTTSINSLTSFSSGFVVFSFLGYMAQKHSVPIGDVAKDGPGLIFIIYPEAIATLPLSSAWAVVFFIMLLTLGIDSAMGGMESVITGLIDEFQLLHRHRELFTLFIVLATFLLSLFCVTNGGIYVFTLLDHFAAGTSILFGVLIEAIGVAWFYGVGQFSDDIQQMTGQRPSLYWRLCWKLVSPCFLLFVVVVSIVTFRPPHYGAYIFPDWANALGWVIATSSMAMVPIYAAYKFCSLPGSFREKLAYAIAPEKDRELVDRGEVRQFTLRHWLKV

The IC50 is the point on the concentration scale where inhibition reaches its midpoint. For the compound `CSCCSCCC(=O)OC[C@@H]1C2CCC(C[C@@H]1c1ccc(F)cc1)N2C` (stereo partly specified), the half-maximal inhibitory concentration (IC50) in assay [1] was found to be 28.5 nM; in assay [2] it was 0.227 nM; in assay [3], 5.69 nM; in assay [4], 16.3 nM.

Regarding `COC(=O)[C@H]1[C@@H](c2ccc(F)cc2)C[C@H]2CC[C@H]1N2C`, the IC50 amounted to 759 nM in assay [1] and 834 nM in assay [4].
